The results in this text go back to patent publication US10647598B2, “Antimicrobial and algicidal agent for cooling water system” (KURITA WATER INDUSTRIES LTD., priority 2013, dated 2020).

One assay concerns Algae A. Briefly: Test tube algicidal test on algae A sampled from cooling tower A. Format: cell-based, diatoms, containing green algae. Set-up: key to the marks not given beside the values. As to conditions: visual inspection after 3 days at north-side window; CSA and algicidal agent amounts per example as in Table 1. The method, then:
(§1) A test water system containing algae was prepared as described below.
(§2) Secondary treated water obtained by filtrating sewage using a filter having a pore diameter of 0.1 μm was received in a beaker having a volume of 1 L, and to this secondary treated water, 1 g of algae sampled from each of cooling towers A, B, and C in which an antimicrobial treatment was performed using a chlorosulfamic acid was added. Algae A sampled from the cooling tower A were diatoms and contained green algae. Algae B sampled from the cooling tower B were primarily formed of green algae and contained blue-green algae and diatoms. Algae C sampled from the cooling tower C were primarily formed of blue-green algae and contained green algae and diatoms.
(§3) After being raveled and sufficiently dispersed in the beaker, the algae A, B, and C were each dispensed into test tubes.
(§4) In Examples 1 to 5 and Comparative Examples 8 to 11 and 13 to 16, a chlorosulfamic acid (abbreviated as “CSA”, and the addition amount represents the residual chlorine concentration) and one of 5-chloro-2-methyl-4-isothiazolone-3-one (abbreviated as “MIT”), 2,2-dibromo-3-nitrilopropion amide (abbreviated as “DBNPA”), and 2-bromo-2-nitro-1,3-propanediol (abbreviated as “BNP) were added to each test tube so as to have predetermined concentrations shown in Table 1. In Comparative Example 6, MIT was only added. In Comparative Example 7, DBNPA was only added. In Comparative Example 12, BNP was only added. In Comparative Example 17, no chemical agents were added. Subsequently, after the test tubes were left for 3 days at a north-side window so as not to be exposed to direct sunlight, the conditions of the algae were observed by visual inspection and evaluated in accordance with the following criteria.
(§5) <Evaluation Criteria> • −: Reduction (death) of algae is apparently observed from the start of the test. • ±: Condition is the same as that at the start of the test. • +: Slight increase of algae is observed as compared to the condition at the start of the test. • ++: Apparent increase of algae is observed as compared to the condition at the start of the test. • +++: Significant increase of algae is observed as compared to the condition at the start of the test.

A further assay deals with Algae B. Put plainly: Test tube algicidal test on algae B sampled from cooling tower B. As to conditions: visual inspection after 3 days at north-side window; CSA and algicidal agent amounts per example as in Table 1. Format: cell-based, green algae, containing blue-green algae and diatoms. The procedure: as §1, §2, §3, §4, §5
The next assay deals with Algae C. Briefly: Test tube algicidal test on algae C sampled from cooling tower C. In kind it is cell-based, blue-green algae, containing green algae and diatoms. To be noted: visual inspection after 3 days at north-side window; CSA and algicidal agent amounts per example as in Table 1. The arrangement: key to the marks not given beside the values. The method, then: as §1, §2, §3, §4, §5

The subject of a further assay is algae A to C. Briefly: Test tube algicidal test, overall assessment. As to conditions: Table 1, algae A to C, 3 days. Format: cell-based. The method, then: as §1, §2, §3
In Examples 1 to 5 and Comparative Examples 8 to 11 and 13 to 16, a chlorosulfamic acid (abbreviated as “CSA”, and the addition amount represents the residual chlorine concentration) and one of 5-chloro-2-methyl-4-isothiazolone-3-one (abbreviated as “MIT”), 2,2-dibromo-3-nitrilopropion amide (abbreviated as “DBNPA”), and 2-bromo-2-nitro-1,3-propanediol (abbreviated as “BNP) were added to each test tube so as to have predetermined concentrations shown in Table 1. In Comparative Example 6, MIT was only added. In Comparative Example 7, DBNPA was only added. In Comparative Example 12, BNP was only added. In Comparative Example 17, no chemical agents were added. Subsequently, after the test tubes were left for 3 days at a north-side window so as not to be exposed to direct sunlight, the conditions of the algae were observed by visual inspection and evaluated in accordance with the following criteria. […]

Take `O=S(=O)(O)NCl` [compound 5, chlorosulfamic acid]: the “Evaluation Results Algae A” value in the assay on Algae A is reported as “+++”. Moreover, the “Evaluation Results Algae B” value in the assay on Algae B is recorded as “+”. Also, the “Evaluation Results Algae C” value in the assay on Algae C was “++”. For the same compound, the “Algicidal effect, assessment in words” value with algae A to C is given as “a sufficient effect also cannot be obtained”.

For the compound `O=S(=O)(O)NCl` [compound 4, chlorosulfamic acid], the “Evaluation Results Algae A” value with Algae A is given as “+++”. The “Evaluation Results Algae B” value in the assay on Algae B is “+”. Besides, the “Evaluation Results Algae C” value in the assay with Algae C was “++”. Further, in the assay on algae A to C, the “Algicidal effect, assessment in words” value is “a sufficient effect also cannot be obtained”.

As for `O=[N+]([O-])C(Br)(CO)CO` [Comparative Example 12, 2-bromo-2-nitro-1,3-propanediol], the “Evaluation Results Algae A” value in the assay with Algae A was “++”. The “Evaluation Results Algae B” value with Algae B is “++”. Moreover, the “Evaluation Results Algae C” value in the assay on Algae C is recorded as “+++”.

As to `Cn1sc(Cl)cc1=O` [Comparative Example 6, 5-chloro-2-methyl-4-isothiazolone-3-one], the “Evaluation Results Algae A” value in the assay with Algae A is “++”. For the same compound, in the assay with Algae B, the “Evaluation Results Algae B” value is recorded as “+”. For the same compound, the “Evaluation Results Algae C” value in the assay on Algae C is recorded as “+++”. In addition, the “Algicidal effect, assessment in words” value with algae A to C was “a sufficient effect cannot be obtained”.

`N#CC(Br)(Br)C(N)=O` [Comparative Example 7, 2,2-dibromo-3-nitrilopropion amide]: the “Evaluation Results Algae A” value in the assay on Algae A is “++”. Also, the “Evaluation Results Algae B” value with Algae B was “+”. For the same compound, the “Evaluation Results Algae C” value in the assay with Algae C is “+++”.

On to `O=S(=O)(O)NCl` [compound 3, chlorosulfamic acid], for which the “Evaluation Results Algae A” value with Algae A was “+++”. In addition, the “Evaluation Results Algae B” value with Algae B was “++”. Besides, in the assay with Algae C, the “Evaluation Results Algae C” value is recorded as “+++”.

`O=S(=O)(O)NCl` [Comparative Example 1, chlorosulfamic acid]: in the assay with Algae A, the “Evaluation Results Algae A” value is listed as “+++”. Besides, the “Evaluation Results Algae B” value in the assay with Algae B is on record as “++”. Also, in the assay on Algae C, the “Evaluation Results Algae C” value is recorded as “+++”.

As for `O=S(=O)(O)NCl` [compound 2, chlorosulfamic acid], the “Evaluation Results Algae A” value in the assay on Algae A is on record as “+++”. Besides, in the assay with Algae B, the “Evaluation Results Algae B” value is given as “++”. Moreover, the “Evaluation Results Algae C” value in the assay with Algae C was “+++”.
